Active and inactive are the calls of the source.
Key:
[1] = system: HT-1080; assay: HT1080 cell viability loss – fluorescence readout (AID 620); assay type: functional, cell-based; conditions: Homo sapiens
[2] = alpha-synuclein stem-loop luciferase translation blockers – H4 neuroglioma cells, luminescence, confirmation (AID 1988); assay type: functional, cell-based
[3] = HEK-293T viability loss, compound-treated – cell-based, uHTS hits, cytotoxicity control for B/T-cell NF-kB inhibitor project, dose response (AID 489019); assay type: functional;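 note: IC50 reflects cytotoxicity as loss of cell viability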
[4] = alpha-synuclein stem-loop translation blockers – luminescence, H4 neuroglioblastoma cells, dose confirmation, confirmation (AID 2454); assay type: functional, cell-based;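 note: H4 neuroglioblastoma cells carrying an alpha-synuclein 5'UTR luciferase reporter; potency for inhibition of the luciferase signal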
[5] = target: Luciferin 4-monooxygenase (Photinus pyralis, UniProt P08659); assay: Counter Screen for Luciferase-based Assay Positives. [Related pubchem assays: 620, 618, 411 ]
[6] = cells; assay type: functional, cell-based
[7] = luciferase reporter signal suppression in cells – H4 neuroglioma cells, luminescence, dose response (AID 1990); assay type: functional, cell-based
[8] = luciferase reporter signal reduction – luminescence, H4-C neuroglioblastoma cells, dose response (AID 2458); assay type: functional, cell-based;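 note: H4 neuroglioblastoma cells stably carrying a luciferase reporter gene fusion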
[9] = Luminescence Cell-Based Dose Response HTS to Identify Inhibitors of 5'UTR Stem-Loop Driven Prion Protein mRNA Translation in H4 Neuroglioblastoma Cells. [Related pubchem assays: 1827 (Project Summary), 1813 (Primary HTS)]; assay type: functional
[10] = system: Jurkat; assay: blockers of NF-kB activation in T cells – Jurkat, luciferase reporter, luminescence, B- and T-cell, dose response (AID 489004); assay type: functional, cell-based; conditions: Homo sapiens;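 note: NF-kB luciferase reporter Jurkat cells stimulated with PMA plus ionomycin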
[11] = target: Glyceraldehyde-3-phosphate dehydrogenase (Homo sapiens, UniProt P04406)
[12] = target: Cytochrome P450 2C19 (Homo sapiens, UniProt P33261); assay: Cytochrome panel assay with activity outcomes. Panel member name: p450-cyp2c19 Compounds with AC50 equal or less than 10 uM are considered active; assay type: functional; conditions: read-out: AC50
[13] = target: T1, Streptokinase A (Streptococcus pyogenes serotype M1, UniProt P10520); assay: viability-normalized secreted streptokinase activity reduction – plasminogen activation absorbance, OD405, dose response (AID 1914); assay type: functional, Streptococcus pyogenes M1 GAS;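 note: secreted streptokinase activity via plasminogen activation per viability signal from cell pellet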
T1 sequence (P10520 whole entry): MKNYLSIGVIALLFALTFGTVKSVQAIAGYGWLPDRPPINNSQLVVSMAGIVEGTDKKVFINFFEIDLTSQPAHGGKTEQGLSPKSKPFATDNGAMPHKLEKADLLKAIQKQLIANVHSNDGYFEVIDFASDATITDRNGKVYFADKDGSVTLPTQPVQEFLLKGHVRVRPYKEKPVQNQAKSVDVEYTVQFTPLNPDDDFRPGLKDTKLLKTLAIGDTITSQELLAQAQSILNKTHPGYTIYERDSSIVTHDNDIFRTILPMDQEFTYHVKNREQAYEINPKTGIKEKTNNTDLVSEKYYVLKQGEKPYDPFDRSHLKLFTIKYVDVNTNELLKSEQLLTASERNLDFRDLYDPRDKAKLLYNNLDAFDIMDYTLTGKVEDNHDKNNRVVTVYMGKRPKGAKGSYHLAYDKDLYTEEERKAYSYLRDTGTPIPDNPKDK

[14] = NIH3T3 cell viability loss – ATP luminescence, mouse fibroblasts, counter-screen, dose response (AID 2010); assay type: functional, cell-based;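 note: cells exposed to compound for about 90 hours before reading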
[15] = target: Nonstructural protein 1 (Influenza A virus, UniProt Q194T2); assay type: functional, Influenza A virus (A/California/07/2009(H1N1))
[16] = microbe, parasite or virus in culture; assay type: functional; conditions: Mycobacterium tuberculosis
[17] = cells
[18] = system: Streptococcus sp. 'group A'; assay: Streptococcus pyogenes SK(-)GAS viability under kanamycin – luminescence, BacTiterGlo, confirmation, counter-screen for streptokinase expression inhibitor project, dose response (AID 1900); assay type: functional, organism-based
[19] = system: Streptococcus; assay: GAS UMAA2166 growth inhibition – luminescence, BacTiterGlo, counter-screen for streptokinase expression inhibitor project, dose response (AID 1915); assay type: functional, organism-based;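 note: potency for reduction of bacterial viability or growth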
[20] = system: BJ; assay: BJ-TERT fibroblast viability loss – cell-based, RAS-independent, luminescence, dose response (AID 1933); assay type: functional; conditions: Homo sapiens
[21] = system: BJ; assay: cells; assay type: functional, cell-based; conditions: Homo sapiens
[22] = NIH-3T3 fibroblast cytotoxicity, dose response, cytotoxicity control, cell-based, fluorescence, Alamar Blue, secondary assay (AID 2327); assay type: functional;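 note: NIH-3T3 mouse fibroblasts cultured with fluconazole at 8 µg/mL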
[23] = Trypanosoma cruzi growth suppression in host cells – NIH3T3 host cells, beta-gal luminescence, confirmation (AID 2044); assay type: functional, cell-based;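 note: intracellular parasites grown in NIH/3T3 mouse fibroblasts as host cells; luminescent beta-galactosidase reporter signal from transgenic T. cruzi replicating inside host cells; inhibitors lower the luminescence signal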
[24] = system: BJ; assay: BJ-TERT-LT-ST fibroblast viability loss – cell-based, RAS-independent, luminescence, dose response (AID 1935); assay type: functional; conditions: Homo sapiens;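 note: BJ fibroblasts immortalized with TERT plus LT and ST oncogenes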
[25] = fluconazole-exposed Candida albicans growth modulators – fluorescence, retest, confirmation (AID 2467); assay type: functional, cell-based
[26] = target: T2, Long-chain-fatty-acid--AMP ligase FadD28 (Mycobacterium tuberculosis, UniProt P9WQ59); assay: Fluorescence polarization aasay to screen for inhibitors that compete for the binding of FadD28 to a bisubstrate Measured in Biochemical System Using Plate Reader - 2147-01_Inhibitor_Dose_CherryPick_Activity.; assay type: functional, Mycobacterium tuberculosis H37Rv
T2 sequence (P9WQ59 whole entry): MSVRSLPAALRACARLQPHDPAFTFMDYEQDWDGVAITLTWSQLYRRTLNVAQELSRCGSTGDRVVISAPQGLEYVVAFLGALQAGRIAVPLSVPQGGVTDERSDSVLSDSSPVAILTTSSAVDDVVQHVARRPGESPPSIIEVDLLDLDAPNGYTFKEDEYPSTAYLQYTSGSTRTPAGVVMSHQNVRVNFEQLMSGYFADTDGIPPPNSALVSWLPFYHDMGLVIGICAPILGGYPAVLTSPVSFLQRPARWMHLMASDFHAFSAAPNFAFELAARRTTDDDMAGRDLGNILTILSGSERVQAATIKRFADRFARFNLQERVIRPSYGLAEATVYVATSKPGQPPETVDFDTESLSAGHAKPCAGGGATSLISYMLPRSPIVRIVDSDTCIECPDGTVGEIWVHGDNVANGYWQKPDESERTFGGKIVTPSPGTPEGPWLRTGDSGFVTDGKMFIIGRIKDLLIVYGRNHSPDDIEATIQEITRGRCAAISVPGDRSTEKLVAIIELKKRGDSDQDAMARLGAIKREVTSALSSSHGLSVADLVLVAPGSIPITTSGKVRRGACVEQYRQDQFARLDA

[27] = DRD fibroblast viability loss – cell-based, non-viral oncogenic, luminescence, dose response (AID 1934); assay type: functional; conditions: Homo sapiens
[28] = A Cell Based Secondary Assay To Explore Cytotoxicity of Compounds that Sensitize Mycobacterium Tuberculosis to Beta-Lactam Antibiotics.; assay type: functional
[29] = system: P388/ADR; assay: cells; assay type: functional; conditions: Mus musculus
[30] = system: SN12K1; assay: cells; assay type: functional; conditions: Homo sapiens
[31] = system: P388; assay: cells; assay type: functional; conditions: Mus musculus
[32] = A cytotoxicity screen of small molecule inhibitors of the PhoP region in Salmonella typhi identified in the primary screen. [Related pubchem assays: 1850, 1864, 1985 ]; assay type: functional
[33] = target: T3, Leucine aminopeptidase (Plasmodium falciparum 3D7, UniProt Q8IL11); assay: P. falciparum M17LAP inhibitors, primary screen, biochemical, fluorogenic H-Leu-NHMec substrate, 1536-well (AID 1619); assay type: functional
T3 sequence (Q8IL11 whole entry): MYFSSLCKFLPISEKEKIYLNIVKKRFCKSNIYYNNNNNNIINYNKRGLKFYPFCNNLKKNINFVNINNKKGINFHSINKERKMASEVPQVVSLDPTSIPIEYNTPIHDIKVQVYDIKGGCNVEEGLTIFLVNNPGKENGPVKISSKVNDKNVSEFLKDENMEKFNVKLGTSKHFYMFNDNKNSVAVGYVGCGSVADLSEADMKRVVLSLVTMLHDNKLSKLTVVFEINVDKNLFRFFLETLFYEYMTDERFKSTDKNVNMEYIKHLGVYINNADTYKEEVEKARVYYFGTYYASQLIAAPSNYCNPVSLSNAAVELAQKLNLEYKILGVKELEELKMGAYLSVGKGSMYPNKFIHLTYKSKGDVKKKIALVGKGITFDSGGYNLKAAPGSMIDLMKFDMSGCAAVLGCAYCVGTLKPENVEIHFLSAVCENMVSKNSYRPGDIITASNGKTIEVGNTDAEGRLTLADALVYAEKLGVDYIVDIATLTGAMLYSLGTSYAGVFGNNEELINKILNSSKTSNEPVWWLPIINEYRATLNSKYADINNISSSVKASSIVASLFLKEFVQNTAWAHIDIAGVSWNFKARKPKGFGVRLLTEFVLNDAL

[34] = target: Peroxisome proliferator-activated receptor gamma/Nuclear receptor coactivator 3 (Homo sapiens, UniProt P37231); assay type: functional;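 note: agonist potency for raising coactivator recruitment to the receptor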
[35] = target: Peroxisome proliferator-activated receptor gamma/Nuclear receptor coactivator 1 (Homo sapiens, UniProt P37231); assay type: functional;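 note: agonist potency as compounds enhance coactivator SRC-1 recruitment to PPARgamma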
[36] = target: Peroxisome proliferator-activated receptor gamma/Nuclear receptor coactivator 2 (Homo sapiens, UniProt P37231); assay type: functional;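 note: agonist potency for raising coactivator recruitment to the receptor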
[37] = target: Cytochrome P450 2C9 (Homo sapiens, UniProt P11712)
[38] = target: T4, Microphthalmia-associated transcription factor (Homo sapiens, UniProt O75030); assay: reducers of TRPM1 reporter luminescence, concentration series – cell-based, SK-MEL-5, cherry-picked, set 3, MITF inhibitor project, dose response (AID 493073); assay type: functional;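 note: SK-MEL-5 melanoma cells with luciferase driven by the MITF target TRPM1 promoter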
T4 sequence (O75030 whole entry): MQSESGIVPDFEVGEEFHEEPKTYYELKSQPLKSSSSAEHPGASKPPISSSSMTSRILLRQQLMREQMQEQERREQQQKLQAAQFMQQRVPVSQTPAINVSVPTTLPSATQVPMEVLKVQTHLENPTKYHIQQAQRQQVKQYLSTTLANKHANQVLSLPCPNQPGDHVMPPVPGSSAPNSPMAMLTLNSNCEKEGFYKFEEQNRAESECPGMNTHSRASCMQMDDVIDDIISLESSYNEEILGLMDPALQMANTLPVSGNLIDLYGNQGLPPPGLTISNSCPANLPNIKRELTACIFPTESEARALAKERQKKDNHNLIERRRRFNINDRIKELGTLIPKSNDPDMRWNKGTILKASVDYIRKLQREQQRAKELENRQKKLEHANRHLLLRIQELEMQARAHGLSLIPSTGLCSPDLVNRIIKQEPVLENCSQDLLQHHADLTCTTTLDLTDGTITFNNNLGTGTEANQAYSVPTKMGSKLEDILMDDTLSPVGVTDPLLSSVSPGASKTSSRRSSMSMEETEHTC

[39] = target: Cytochrome P450 3A4 (Homo sapiens, UniProt P08684);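 note: CYP3A4 tested as one member of a cytochrome P450 panel screen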
Chain of Cytochrome P450 3A4 (P08684 whole entry): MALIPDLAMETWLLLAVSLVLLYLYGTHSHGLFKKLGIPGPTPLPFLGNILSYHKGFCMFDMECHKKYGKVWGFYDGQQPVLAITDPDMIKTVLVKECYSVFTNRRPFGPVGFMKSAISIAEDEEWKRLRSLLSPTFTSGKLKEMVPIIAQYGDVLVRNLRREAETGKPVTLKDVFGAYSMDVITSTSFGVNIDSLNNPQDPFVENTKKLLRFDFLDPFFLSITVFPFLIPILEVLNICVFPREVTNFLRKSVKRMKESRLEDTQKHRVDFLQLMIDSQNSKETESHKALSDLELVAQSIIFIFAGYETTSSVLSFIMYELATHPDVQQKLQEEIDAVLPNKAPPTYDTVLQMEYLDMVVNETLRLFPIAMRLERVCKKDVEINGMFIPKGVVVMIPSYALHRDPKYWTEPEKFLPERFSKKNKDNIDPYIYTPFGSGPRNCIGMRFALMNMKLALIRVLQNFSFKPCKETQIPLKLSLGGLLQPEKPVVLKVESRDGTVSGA

Chain of Luciferin 4-monooxygenase (P08659 whole entry): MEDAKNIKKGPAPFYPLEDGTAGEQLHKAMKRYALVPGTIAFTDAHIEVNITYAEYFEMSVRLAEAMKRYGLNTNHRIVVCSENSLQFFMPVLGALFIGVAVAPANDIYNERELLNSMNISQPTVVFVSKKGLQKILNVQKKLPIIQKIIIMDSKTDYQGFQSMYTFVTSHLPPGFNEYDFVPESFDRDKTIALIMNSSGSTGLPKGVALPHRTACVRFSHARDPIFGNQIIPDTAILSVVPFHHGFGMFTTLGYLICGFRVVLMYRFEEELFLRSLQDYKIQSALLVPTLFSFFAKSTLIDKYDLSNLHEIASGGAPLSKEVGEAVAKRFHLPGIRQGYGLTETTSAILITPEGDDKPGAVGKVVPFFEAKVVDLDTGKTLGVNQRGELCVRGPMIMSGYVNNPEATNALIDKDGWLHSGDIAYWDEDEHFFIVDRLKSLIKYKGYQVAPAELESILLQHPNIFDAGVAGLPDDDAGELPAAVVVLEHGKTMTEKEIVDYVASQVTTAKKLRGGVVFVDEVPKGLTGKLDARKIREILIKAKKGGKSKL
Chain of Cytochrome P450 2C9 (P11712 whole entry): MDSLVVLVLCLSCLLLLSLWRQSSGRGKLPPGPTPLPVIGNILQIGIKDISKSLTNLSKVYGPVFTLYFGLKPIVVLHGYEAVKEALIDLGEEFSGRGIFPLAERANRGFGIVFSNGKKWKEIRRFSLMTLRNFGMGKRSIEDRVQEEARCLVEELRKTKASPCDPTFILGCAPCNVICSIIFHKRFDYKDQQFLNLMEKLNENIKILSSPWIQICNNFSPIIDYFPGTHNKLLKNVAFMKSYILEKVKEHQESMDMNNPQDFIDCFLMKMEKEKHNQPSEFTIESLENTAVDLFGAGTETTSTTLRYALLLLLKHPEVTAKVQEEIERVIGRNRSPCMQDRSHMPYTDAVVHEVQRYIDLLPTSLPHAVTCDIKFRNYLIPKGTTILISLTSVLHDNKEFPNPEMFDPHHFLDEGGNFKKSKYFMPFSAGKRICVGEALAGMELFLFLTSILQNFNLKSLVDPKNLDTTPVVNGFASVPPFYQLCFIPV
Chain of Peroxisome proliferator-activated receptor gamma/Nuclear receptor coactivator 2 (P37231 whole entry): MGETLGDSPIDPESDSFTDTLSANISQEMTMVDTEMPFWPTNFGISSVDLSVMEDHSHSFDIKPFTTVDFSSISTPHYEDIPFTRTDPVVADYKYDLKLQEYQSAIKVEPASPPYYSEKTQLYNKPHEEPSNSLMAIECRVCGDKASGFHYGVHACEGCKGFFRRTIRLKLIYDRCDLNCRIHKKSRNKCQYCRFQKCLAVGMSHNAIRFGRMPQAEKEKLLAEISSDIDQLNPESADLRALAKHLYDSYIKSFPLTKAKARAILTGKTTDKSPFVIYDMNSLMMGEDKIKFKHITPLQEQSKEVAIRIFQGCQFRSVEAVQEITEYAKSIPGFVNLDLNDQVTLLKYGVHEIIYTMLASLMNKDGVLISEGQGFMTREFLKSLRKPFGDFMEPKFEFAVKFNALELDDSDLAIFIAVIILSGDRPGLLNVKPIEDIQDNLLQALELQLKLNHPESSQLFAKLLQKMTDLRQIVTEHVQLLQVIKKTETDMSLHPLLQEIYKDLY
Chain of Peroxisome proliferator-activated receptor gamma/Nuclear receptor coactivator 2 (Q15596 whole entry, further chain): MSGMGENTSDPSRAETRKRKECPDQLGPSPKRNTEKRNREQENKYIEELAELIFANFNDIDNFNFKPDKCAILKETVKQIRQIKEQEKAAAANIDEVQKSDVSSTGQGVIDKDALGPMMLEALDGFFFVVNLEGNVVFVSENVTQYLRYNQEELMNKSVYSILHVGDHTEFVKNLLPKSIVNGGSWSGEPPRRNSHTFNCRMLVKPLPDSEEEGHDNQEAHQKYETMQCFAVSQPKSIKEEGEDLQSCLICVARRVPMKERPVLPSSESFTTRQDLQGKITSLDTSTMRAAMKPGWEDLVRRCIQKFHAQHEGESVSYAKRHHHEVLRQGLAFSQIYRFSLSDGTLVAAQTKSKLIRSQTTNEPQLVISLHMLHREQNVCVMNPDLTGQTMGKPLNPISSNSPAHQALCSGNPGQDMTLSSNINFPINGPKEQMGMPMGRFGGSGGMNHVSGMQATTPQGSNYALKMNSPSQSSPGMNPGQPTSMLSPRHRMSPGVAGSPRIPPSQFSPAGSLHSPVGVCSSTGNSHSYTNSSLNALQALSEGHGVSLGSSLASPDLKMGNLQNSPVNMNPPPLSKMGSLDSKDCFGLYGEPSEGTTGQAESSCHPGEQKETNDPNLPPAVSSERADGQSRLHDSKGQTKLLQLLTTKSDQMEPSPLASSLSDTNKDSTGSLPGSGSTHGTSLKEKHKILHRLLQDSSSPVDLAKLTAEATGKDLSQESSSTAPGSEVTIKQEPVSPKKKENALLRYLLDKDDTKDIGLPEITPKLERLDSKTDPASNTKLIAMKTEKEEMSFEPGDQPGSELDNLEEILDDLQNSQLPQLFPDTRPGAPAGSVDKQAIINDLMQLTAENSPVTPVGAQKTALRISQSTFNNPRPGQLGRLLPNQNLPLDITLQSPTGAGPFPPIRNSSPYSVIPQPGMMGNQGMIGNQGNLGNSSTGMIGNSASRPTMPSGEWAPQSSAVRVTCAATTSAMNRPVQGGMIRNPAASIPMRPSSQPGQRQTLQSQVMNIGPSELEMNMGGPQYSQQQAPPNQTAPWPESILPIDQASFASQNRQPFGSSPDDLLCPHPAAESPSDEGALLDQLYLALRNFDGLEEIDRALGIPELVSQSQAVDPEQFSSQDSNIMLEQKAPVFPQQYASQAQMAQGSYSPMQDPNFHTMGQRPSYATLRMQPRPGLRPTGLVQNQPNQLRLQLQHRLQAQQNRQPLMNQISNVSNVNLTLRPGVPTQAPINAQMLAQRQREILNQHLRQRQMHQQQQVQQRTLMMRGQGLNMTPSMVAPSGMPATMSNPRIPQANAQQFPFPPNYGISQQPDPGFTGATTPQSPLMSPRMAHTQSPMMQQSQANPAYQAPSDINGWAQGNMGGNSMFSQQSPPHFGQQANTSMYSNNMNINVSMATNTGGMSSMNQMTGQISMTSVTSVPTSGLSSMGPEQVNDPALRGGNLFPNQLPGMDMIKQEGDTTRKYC
Chain of Nonstructural protein 1 (Q194T2 whole entry): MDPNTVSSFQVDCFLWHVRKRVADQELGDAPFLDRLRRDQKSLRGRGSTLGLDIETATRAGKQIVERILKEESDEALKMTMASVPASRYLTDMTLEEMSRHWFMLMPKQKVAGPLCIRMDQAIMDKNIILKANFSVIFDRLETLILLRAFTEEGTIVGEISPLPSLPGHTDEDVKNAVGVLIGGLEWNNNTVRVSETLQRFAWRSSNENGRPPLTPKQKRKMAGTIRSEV
Chain of Glyceraldehyde-3-phosphate dehydrogenase (P04406 whole entry): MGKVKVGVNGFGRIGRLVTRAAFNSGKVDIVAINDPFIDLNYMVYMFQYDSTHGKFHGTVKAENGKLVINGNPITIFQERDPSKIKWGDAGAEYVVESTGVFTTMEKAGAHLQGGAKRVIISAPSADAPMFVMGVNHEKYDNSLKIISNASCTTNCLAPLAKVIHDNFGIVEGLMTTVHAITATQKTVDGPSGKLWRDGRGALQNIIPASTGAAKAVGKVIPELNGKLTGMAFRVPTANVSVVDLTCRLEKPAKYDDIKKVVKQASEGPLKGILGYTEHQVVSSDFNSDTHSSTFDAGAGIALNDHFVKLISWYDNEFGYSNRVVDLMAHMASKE
Chain of Cytochrome P450 2C19 (P33261 whole entry): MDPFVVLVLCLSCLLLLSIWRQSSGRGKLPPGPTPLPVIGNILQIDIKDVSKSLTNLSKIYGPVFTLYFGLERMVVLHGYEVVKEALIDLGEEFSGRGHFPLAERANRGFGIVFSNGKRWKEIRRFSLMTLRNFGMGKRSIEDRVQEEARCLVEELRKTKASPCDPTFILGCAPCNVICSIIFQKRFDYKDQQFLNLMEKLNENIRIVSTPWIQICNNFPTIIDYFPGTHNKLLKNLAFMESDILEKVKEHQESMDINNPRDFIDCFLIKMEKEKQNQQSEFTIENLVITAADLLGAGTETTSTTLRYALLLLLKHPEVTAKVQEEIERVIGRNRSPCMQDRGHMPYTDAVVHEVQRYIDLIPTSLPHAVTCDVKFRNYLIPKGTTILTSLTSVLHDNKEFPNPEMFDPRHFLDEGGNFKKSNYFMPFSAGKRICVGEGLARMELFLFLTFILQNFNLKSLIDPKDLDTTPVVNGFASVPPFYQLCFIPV

## COC(=O)Cc1ccc(NC(=O)c2ccc(C(C)(C)C)cc2)cc1
[1]
  EC50: > 50 µM (not active)
[2]
  EC50: < 0.1 µM (active)
[3]
  IC50: 78.9 µM (inactive)
[4]
  EC50: 0.161 µM (active)
[5]
  EC50: 1.8 µM (active)
[6]
  EC50: 0.263 µM (active)
[7]
  EC50: < 0.1 µM (active)
[8]
  EC50: 0.067 µM (active)
[9]
  EC50: < 0.1 µM (active)
[10]
  IC50: 0.19 µM (active)

## CCOc1ccc(-c2cc(CCCC(=O)Nc3cc(OC)ccc3OC)no2)cc1
[1]
  EC50: > 50 µM (not active)
[2]
  EC50: 11.9 µM (active)
[11]
  IC50: > 100 µM (not active)
[5]
  EC50: 18.8 µM (active)
[7]
  EC50: 13 µM (active)
[9]
  EC50: 26.9 µM (active)
[12]
  AC50: 3.16 µM (inconclusive)

## C[n+]1c(-c2ccccc2)c2cc(N)ccc2c2ccc(N)cc21
[2]
  EC50: 9.48 µM (active)
[3]
  IC50: > 80 µM (inactive)
[13]
  EC50: > 150 µM (not active)
[14]
  EC50: 12.3 µM (active)
[7]
  EC50: > 120 µM (not active)
[15]
  IC50: 30.5 µM (active)
[9]
  EC50: 20.1 µM (active)
[16]
  CC50: > 40 µM (active)
[17]
  EC50: 0.011 µM (active)
[18]
  EC50: 1.29 µM (active)
[19]
  EC50: 5.67 µM (active)
[20]
  EC50: 3.61 µM (active)
[10]
  IC50: > 80 µM (inactive)
[21]
  EC50: 6.25 µM (active)
[22]
  EC50: > 160 µM (inconclusive)
[23]
  EC50: < 0.1 µM (active)
[24]
  EC50: 10.5 µM (active)
[25]
  EC50: 0.121 µM (active)
[26]
  AC50: > 100 µM (inactive)
[27]
  EC50: 7.32 µM (active)

## O=C1C2ON(c3ccc(Br)cc3)C(c3cccnc3)C2C(=O)N1C1CCCCC1 (stereo unspecified)
[28]
  CC50: 37.9 µM (active)

## O=C1NC(=S)NC(=O)C1=C(O)Nc1ccccc1
[29]
  GI50: 25.2 µM (inactive)
[30]
  GI50: 15 µM (inactive)
[31]
  GI50: 16.7 µM (inactive)
[32]
  EC50: > 50 µM (active)

## CC(C)[C@H](Nc1nc(-c2ccccc2)nc2c1oc1ccccc12)C(=O)O
[33]
  IC50: 25.2 µM (active)

## C=CCNC(=O)c1ccc(-c2nc(-c3ccc(Cl)cc3Cl)cs2)cc1
[34]
  EC50: 10.9 µM (not active)
[35]
  EC50: 17.1 µM (not active)
[36]
  EC50: 10.2 µM (not active)

## COc1ccc(/C(C)=C2/SC(=S)N(CCC(=O)O)C2=O)cc1
[33]
  IC50: 27.4 µM (active)

## CCOC(=O)/C(=N\Nc1ccccc1)c1csc(Nc2ccc(C)cc2)n1
[28]
  CC50: 31.3 µM (active)
[14]
  EC50: > 30 µM (not active)
[23]
  EC50: 2.13 µM (active)

## COc1ccc(-c2nc3cc(NC(=O)Cc4ccc(OC)c(OC)c4)ccc3o2)cc1
[32]
  EC50: > 50 µM (active)

## O=C(N/N=C/c1ccc([N+](=O)[O-])s1)c1ccccc1Br
[1]
  EC50: > 50 µM (not active)
[37]
  AC50: 39.8 µM (inconclusive)
[5]
  EC50: 0.24 µM (active)
[38]
  AC50: 3.65 µM (active)
[39]
  AC50: 22.4 µM (inconclusive)
